Key:
[1] = Water solubility, dispersibility and stability of aqueous solution after sonication; assay type: physicochemical
Experimental: An α-form ZnPc nanowire solution was prepared by adding 1 mg of α-form ZnPc nanowires collected from Si substrates into 5 ml of water, followed by sonication for various times in a bath sonicator (UC-10, JEIOTECH). The final solution was transferred for the measurement of optical absorbance using a UV-vis spectrometer (Agilent 8453 spectrophotometer). The concentration of the α-form ZnPc nanowire solution was determined by measurement of optical absorbance at 219 nm. The calibration curve was made by measuring the optical absorbance of a sequentially diluted solution at 219 nm.

KB cells = experiment: ROS generation in KB cells (Image-iT LIVE ROS Kit, H2DCFDA fluorescence); assay type: cell-based, human; settings: irradiated with NIR 808 nm, 3 W/cm^2
Experimental: The PD activity of α-form ZnPc nanowire was proven by detecting reactive oxygen species generated upon illumination with NIR upon irradiation with NIR (λ=808 nm) laser. The reactive oxygen species generated from NIR-activated KB cells containing α-form ZnPc nanowires was assessed using Image-iT™ LIVE Reactive Oxygen Species (ROS) Kit.
This experiment is based on 5-(and-6)-carboxy-2′7′-dichlorodihydrofluorescein diacetate (carboxy-H2DCFDA) as a fluorogenic marker for ROS permeated viable cells. In the presence of ROS, the reduced carboxy-H2DCFDA is supposed to be oxidized to emit bright green fluorescence. Therefore, the oxidatively stressed cells by ROS could be recognized by green fluorescence.
The generation of reactive oxygen species (ROS) was monitored using Image-iT™ LIVE Reactive Oxygen Species Kit based on H2DCFDA (Molecular Probes/Invitrogen), following the manufacturer's protocol. Pre-seeded epidermoid mouth carcinoma cells (KB cells) were incubated with ZnPc nanowire solution (120 mg/L) at 37° C. with 5% CO2 for 18 hours. Then, after washing the cells thoroughly with phosphate buffer saline (PBS), the cells were irradiated with an 808 nm laser. […] In the presence of ROS, the reduced fluorescein compound is oxidized and emits bright green fluorescence. Fluorescence intensity was measured at 529 nm using a fluorescence spectrometer (Cary Eclipse, Varian).

[2] = Photothermal property: temperature change of aqueous solutions upon laser irradiation; assay type: physicochemical; settings: 3 W/cm^2, 3 minutes
Experimental: The PT property was examined by monitoring temperature changes of α-form ZnPc nanowire aqueous solutions (60, 80, 120 mg/L) upon light illumination at two different wavelengths (λ) of 660 nm, at which the highest absorption occurs, and 808 nm, at which most biological systems become transparent, at the power of 3 W/cm^2.
The α-form ZnPc nanowire solution and zinc phthalocyanine tetrasulfonate (ZnPcS4) solutions at various concentrations (60, 80, 120 mg/L) were irradiated using a 660/808 nm laser (diode laser, JENOPTIK unique-mode GmbH, Germany) at 3 W/cm^2. The temperature of each solution was measured with a thermocouple connected temperature controller (Hanyoung, Korea) at 20-second intervals for a total of 3 minutes. Three sets per each solution were measured.

Compound	water solubility (qualitative) [1]	amount of ROS generated (green fluorescence) (KB cells)	temperature of solution upon laser irradiation ([2]; 660 nm (FIGS. 18, 19), from room temperature, 60-120 mg/L)	temperature of solution upon laser irradiation ([2]; 808 nm, 120 mg/L)
[Zn+2].c1ccc2c(c1)-c1nc-2nc2[n-]c(nc3nc([n-]c4nc(n1)-c1ccccc1-4)-c1ccccc1-3)c1ccccc21 [ZnPc powder, zinc-phthalocyanine]	did not increase	–	–	–
zinc phthalocyanine tetrasulfonate [ZnPcS4]	–	insignificant	similar	negligible temperature changes

— patent publication US9415106B2, “α-form zinc-phthalocyanine nanowires having enhanced water solubility and water dispersibility, composite of an α-form zinc-phthalocyanine nanowire/phenothiazine, and method for preparing same” (POHANG UNIVERSITY OF SCIENCE AND TECHNOLOGY INDUSTRY …, priority 2011, dated 2016)
